In PubChem BioAssay AID2060619 (Molecular Pharmacology Branch, DTP, NCI, 2025):
pIC50: −log10 of the molar value. “And” between values parts separate entries of the source, which are not always exact repeats. Equal values may be shown once. One block for each compound: values may come before it.

System: 323965-272-R-J2-PDC complex spheroid viability
Test: Anticancer human tumor 323965-272-R-J2-PDC patient-derived pancreatic carcinoma cell line growth inhibition [CLK]
Conditions: for viability, T/C: stronger effect = lower value
Procedure, shortened: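 Patient-derived tumor cells grown as complex spheroids with HUVEC endothelial cells and mesenchymal stem cells, treated with drug combinations. Concentrations descend in half-log steps from near clinical Cmax, or from 10 microM if Cmax unknown.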

[1] = curve of first compound, second compound 0.0316 µM
[2] = curve of first compound, second compound 0.1 µM
[3] = curve of first compound, second compound 0.316 µM
[4] = curve of first compound, second compound 1 µM
[5] = curve of first compound, second compound 3.16 µM
[6] = curve of first compound, second compound 10 µM
[7] = second compound 0.0316 µM, first compound 0.00316 µM
[8] = second compound 0.0316 µM, first compound 0.01 µM
[9] = second compound 0.0316 µM, first compound 0.0316 µM
[10] = second compound 0.0316 µM, first compound 0.1 µM
[11] = second compound 0.0316 µM, first compound 0.316 µM
[12] = second compound 0.0316 µM, first compound 1 µM
[13] = second compound 0.1 µM, first compound 0.00316 µM
[14] = second compound 0.1 µM, first compound 0.01 µM
[15] = second compound 0.1 µM, first compound 0.0316 µM
[16] = second compound 0.1 µM, first compound 0.1 µM
[17] = second compound 0.1 µM, first compound 0.316 µM
[18] = second compound 0.1 µM, first compound 1 µM
[19] = second compound 0.316 µM, first compound 0.00316 µM
[20] = second compound 0.316 µM, first compound 0.01 µM
[21] = second compound 0.316 µM, first compound 0.0316 µM
[22] = second compound 0.316 µM, first compound 0.1 µM
[23] = second compound 0.316 µM, first compound 0.316 µM
[24] = second compound 0.316 µM, first compound 1 µM
[25] = second compound 1 µM, first compound 0.00316 µM
[26] = second compound 1 µM, first compound 0.01 µM
[27] = second compound 1 µM, first compound 0.0316 µM
[28] = second compound 1 µM, first compound 0.1 µM
[29] = second compound 1 µM, first compound 0.316 µM
[30] = second compound 1 µM, first compound 1 µM
[31] = second compound 3.16 µM, first compound 0.00316 µM
[32] = second compound 3.16 µM, first compound 0.01 µM
[33] = second compound 3.16 µM, first compound 0.0316 µM
[34] = second compound 3.16 µM, first compound 0.1 µM
[35] = second compound 3.16 µM, first compound 0.316 µM
[36] = second compound 3.16 µM, first compound 1 µM
[37] = second compound 10 µM, first compound 0.00316 µM
[38] = second compound 10 µM, first compound 0.01 µM
[39] = second compound 10 µM, first compound 0.0316 µM
[40] = second compound 10 µM, first compound 0.1 µM
[41] = second compound 10 µM, first compound 0.316 µM
[42] = second compound 10 µM, first compound 1 µM
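Also: spheroids exposed to agents for seven days before readout.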
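For viability, T/C in this document: percent of DMSO vehicle control wells so 100% = untreated growth.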

SMILES: CCN1CCN(Cc2ccc(Nc3ncc(F)c(-c4cc(F)c5nc(C)n(C(C)C)c5c4)n3)nc2)CC1 + CN1CCN(c2cc(C(=O)Nc3cc4cc(-c5cnn(C)c5)ccc4cn3)ccn2)CC1
pIC50 [1]: < 6.00
pIC50 [2]: < 6.00
pIC50 [3]: > 8.50
pIC50 [4]: > 8.50
pIC50 [5]: > 8.50
pIC50 [6]: > 8.50
viability, T/C [7]: 93.6%
viability, T/C [8]: 96.1%
viability, T/C [9]: 78.2%
viability, T/C [10]: 73.1%
viability, T/C [11]: 65.2%
viability, T/C [12]: 76.1%
viability, T/C [13]: 68.6%
viability, T/C [14]: 67.8%
viability, T/C [15]: 62.6%
viability, T/C [16]: 60.2%
viability, T/C [17]: 59.7%
viability, T/C [18]: 58.9%
viability, T/C [19]: 23.3%
viability, T/C [20]: 24.5%
viability, T/C [21]: 25.5%
viability, T/C [22]: 27.9%
viability, T/C [23]: 29.6%
viability, T/C [24]: 39.9%
viability, T/C [25]: 3.56%
viability, T/C [26]: 3.73%
viability, T/C [27]: 3.71%
viability, T/C [28]: 3.79%
viability, T/C [29]: 7.89%
viability, T/C [30]: 9.9%
viability, T/C [31]: 3.02%
viability, T/C [32]: 5.31%
viability, T/C [33]: 3.88%
viability, T/C [34]: 3.9%
viability, T/C [35]: 4.69%
viability, T/C [36]: 6.79%
viability, T/C [37]: 3.83%
viability, T/C [38]: 4.01%
viability, T/C [39]: 4.24%
viability, T/C [40]: 3.37%
viability, T/C [41]: 4.88%
viability, T/C [42]: 5.11%

pIC50 [1]: 8.10
pIC50 [2]: 8.09
pIC50 [3]: 8.38
pIC50 [4]: > 8.50
pIC50 [5]: > 8.50
pIC50 [6]: > 8.50
SMILES: CCc1c2c(nc3ccc(O)cc13)-c1cc3c(c(=O)n1C2)COC(=O)[C@]3(O)CC + CNC(=O)c1ccc(Nc2nc(OC3CCCC3)c3c(-c4ccc5nc(C)oc5c4)c[nH]c3n2)c(OC)c1
viability, T/C [7]: 73.5%
viability, T/C [8]: 42.4%
viability, T/C [9]: 33%
viability, T/C [10]: 30.2%
viability, T/C [11]: 24.4%
viability, T/C [12]: 23.4%
viability, T/C [13]: 61%
viability, T/C [14]: 47.1%
viability, T/C [15]: 39%
viability, T/C [16]: 29.9%
viability, T/C [17]: 25%
viability, T/C [18]: 24%
viability, T/C [19]: 54.1%
viability, T/C [20]: 38.7%
viability, T/C [21]: 30%
viability, T/C [22]: 27.9%
viability, T/C [23]: 18.4%
viability, T/C [24]: 16.8%
viability, T/C [25]: 34.8%
viability, T/C [26]: 25.8%
viability, T/C [27]: 21.9%
viability, T/C [28]: 16.6%
viability, T/C [29]: 15.2%
viability, T/C [30]: 10.9%
viability, T/C [31]: 30.9%
viability, T/C [32]: 30.1%
viability, T/C [33]: 25.3%
viability, T/C [34]: 14.3%
viability, T/C [35]: 17%
viability, T/C [36]: 11.9%
viability, T/C [37]: 30.5%
viability, T/C [38]: 23.6%
viability, T/C [39]: 20.9%
viability, T/C [40]: 16%
viability, T/C [41]: 14.2%
viability, T/C [42]: 8.54%

pIC50 (curve of compound): < 5.00
SMILES: C=CC(=O)N1CCN(c2nc(=O)n(-c3c(C)ccnc3C(C)C)c3nc(-c4c(O)cccc4F)c(F)cc23)C(C)C1 (stereo not drawn)
viability, T/C (compound 0.0316 µM): 75.1% and 73.7%
viability, T/C (compound 0.1 µM): 60.8% and 66.9%
viability, T/C (compound 0.316 µM): 55.2% and 68.3%
viability, T/C (compound 1 µM): 67.1% and 84.3%
viability, T/C (compound 3.16 µM): 76% and 71.3%
viability, T/C (compound 10 µM): 62.9% and 66.1%

pIC50 (curve of compound): 7.08 and 7.32
SMILES: COc1c(OCCCN2CCOCC2)ccc2c3n(c(=NC(=O)c4cnc(N)nc4)nc12)CCN3
viability, T/C (compound 0.00316 µM): 98.5% and 103%
viability, T/C (compound 0.01 µM): 80.8% and 72.1%
viability, T/C (compound 0.0316 µM): 62% and 54.2%
viability, T/C (compound 0.1 µM): 46.6% and 45.2%
viability, T/C (compound 0.316 µM): 38.4% and 31%
viability, T/C (compound 1 µM): 27.7% and 21.9%
